Results from publication PMC13289148, “Assessment of the toxic effects of parabens, commonly used preservatives in cosmetics, and their halogenated by-products on human skin and endothelial cells” (NAM journal, 2025).
“Also recorded” adds a separate entry of the source.

Tests used:
HEK001 cells = experiment: Wound healing (scratch) assay, HEK001; format: cell-based, human; conditions: for proliferation rate in wound healing assay / proliferation rate / wound healing: 24 h; for proliferation rate / wound healing: HEK001, 100 µM
Procedure: (§1) The human epidermal keratinocytes HEK001 (CRL-2404, ATCC, Manassas, VA) were maintained in a keratinocyte-serum-free medium supplemented with 5 ng/mL human recombinant EGF. The cells were incubated under 5 % CO2 and a 95 % humidified atmosphere at 37 °C ([Bogen et al., 2017]). HMEC-1 cells (CRL-3243, ATCC) were cultured at 37 °C in a 5 % CO2 humidified atmosphere using MCDB-131 medium supplemented with 10 % fetal bovine serum, 1 % penicillin/streptomycin, 10 mM l-glutamine, 1 μg/mL hydrocortisone, and 10 ng/mL EGF supplement.
(§2) The experiments were performed with biological (96 well plates) and technical (wells) replicates. Four to five biological replicates with four technical replicates were used to determine cytotoxicity. Ten paraben concentrations were assessed, ranging from a low human serum-relevant concentration (1 pM) to a high non-human-relevant concentration (1 mM). A solvent control of 0.6 % DMSO and a positive control of 5 % DMSO were also used. Three representative concentrations were chosen for each cell line for the wound-healing assay. Those concentrations were 1 µM, 10 µM, and 100 µM. Upon dosing, plates were returned to the incubator for a 24-hour exposure period.
(§3) As described by [Grada et al. (2017)] and [Yarrow et al. (2004)], a wound-healing assay was used to evaluate the proliferation rate of a disrupted cell monolayer. Cells were seeded at 200,000 cells/mL in 48-well plates and allowed to stabilize, reaching 90–100 % confluency within 24–72 h. Once confluent, the growth media was removed, and a scratch was created in the cell monolayer using a pipette tip. Manual disruption of the cell monolayer was chosen over the use of inserts or automated scratching devices to design experiments that are cost-effective and accessible to laboratories with limited budgets. This approach provides greater flexibility in experimental design without reliance on specialized equipment, making it a practical solution for resource-constrained settings. Additionally, the manual scratch method may better simulate real-world injury scenarios. To minimize variability, consistent pipette tip sizes were employed, experiments were performed in multiple replicates, and immediate visual inspections were conducted to ensure reproducibility and uniformity across trials. The exposure media was then applied, and cytochalasin D ([…]) was used as a positive control to inhibit wound healing by suppressing cell division via […]. Cells were incubated with exposure media for 24 h while kinetic high contrast brightfield (HCBF) images were captured every 30 min using the Lionheart FX automated microscope (Biotek, Agilent). Gen5 software analyzed the scratch area over time, measuring the reduction in cell-free area as migration occurred. All data were normalized to the solvent control for consistency.

[1] = MTT cytotoxicity assay, HMEC-1 endothelial cells; format: cell-based; conditions: human, HMEC-1 dermal microvascular endothelial cells, read-out: EC50 from cytotoxicity assay, HMEC-1
Procedure: as §1, §2
(§4) Cell viability was assessed using the MTT assay [3-(4,5-dimethylthiazol-2-yl)−2,5-diphenyltetrazolium bromide] ([Solan et al., 2022]). After 24 h of exposure, a 20 % tetrazolium dye solution was added to the cells. The NAD(P)H-dependent oxidoreductase enzymes in viable cells reduced the tetrazolium dye, producing insoluble formazan crystals visible as a purple coloration, indicative of active cellular respiration. Following the incubation period, the media was carefully removed, leaving the formazan crystals behind. To dissolve these crystals, a 1:1 solution of ethanol and DMSO was added to the plate. Absorbance was then measured at 595 nm on a spectrophotometer to quantify the extent of formazan formation (BioTek SynergyTM H1, Winooski, VT).
(§5) A 24-hour exposure period was selected to evaluate the acute toxicity of parabens on HEK001 and HMEC-1 cell lines. […] Assessing the acute effects on these less-characterized cell lines is critical for enabling meaningful comparisons across models. Additionally, acute toxicity studies minimize confounding factors such as nutrient depletion and cell overgrowth, facilitating higher-throughput screening.

[2] = test system: HEK001 cells (human epidermal keratinocytes); experiment: MTT cytotoxicity assay, HEK001 keratinocytes; format: cell-based; conditions: for EC50: 24 h exposure, MTT, HEK001 keratinocytes, average ± standard deviation, read-out: EC50 from cytotoxicity assay, HEK001; for cytotoxic response at high concentration: HEK001, 100 µM, proliferation could not be observed
Procedure: as §1, §2, §4, §5

[3] = MTT cytotoxicity assay, HEK001 keratinocytes; format: cell-based, human; conditions: human, HEK001 epidermal keratinocytes, 24 h exposure, MTT, HEK001 keratinocytes; average ± standard deviation; read-out: EC50 from cytotoxicity assay, HEK001
Procedure: as §1, §2, §4, §5

HMEC-1 cells = experiment: Wound healing (scratch) assay, HMEC-1; format: cell-based, human; conditions: for sensitivity at high concentration / proliferation rate / wound healing / proliferation rate relative to baseline / untreated control: HMEC-1, 100 µM; for proliferation rate in wound healing assay: HMEC-1, 1–10 µM; for proliferation rate in wound healing assay / proliferation rate / wound healing / proliferation rate relative to baseline / untreated control: 24 h
Procedure: as §1, §2, §3

HepG2 cells [4] = test system: HepG2 cells; set-up: method as in Kizhedath et al., 2019; conditions: 125 µM, ref Kizhedath et al., 2019; cited from earlier work
red blood cells (RBCs) = test system: red blood cells (RBCs); set-up: method as in Ko et al. (2023); conditions: ref Ko et al. (2023), cited from earlier work
HDFn cells = test system: HDFn cells; set-up: method as in Kizhedath et al., 2019; conditions: 125 µM, ref Kizhedath et al., 2019; cited from earlier work
HepG2 cells [5] = test system: HepG2 cells; set-up: method as in Khanal et al., 2012; conditions: 125 µM, HepG2, compared to HBA, MeP, and PrP; ref Khanal et al., 2012; cited from earlier work
HaCaT keratinocytes = test system: HaCaT keratinocytes; set-up: method as in Couch, 2024; Kinney, 2022; conditions: 200 µM, ref Couch, 2024, Kinney, 2022; cited from earlier work
M624 melanoma cells = test system: M624 melanoma cells; set-up: method as in Couch, 2024; Kinney, 2022; conditions: 200 µM, ref Couch, 2024, Kinney, 2022; cited from earlier work
[6] = HEK001, 1 µM, versus solvent control
[7] = HEK001, 10 µM, versus solvent control
[8] = 24 h exposure, MTT, HMEC-1 endothelial cells, average ± standard deviation

With `O=C(OCc1ccccc1)c1ccc(O)cc1` [BeP, benzylparaben] the “proliferation rate in wound healing assay” value (HEK001 cells; [6]) was “lower proliferation rates compared to the solvent control”, the “proliferation rate in wound healing assay” value (HEK001 cells; [7]) was “proliferation significantly decreased; also recorded: lower proliferation rates compared to the solvent control” and the EC50 at 24 h [1, 8] was 25.6 ± 3.9 µM. For the same molecule, the EC50 [2] was 3.3 ± 1 µM, the “cytotoxic response at high concentration” value [2] was “acutely lethal responses” and the EC50 at 24 h [3] was 3.34 ± 0.97 µM. The “sensitivity at high concentration” value (HMEC-1 cells) was “too sensitive to conduct proliferation assays” and the “proliferation rate in wound healing assay” value (HMEC-1 cells) was “proliferation rates comparable to those observed in untreated controls”.

With `CCCCOC(=O)c1ccc(O)cc1` [BuP, butylparaben] the “proliferation rate in wound healing assay” value (HEK001 cells; [6]) was “lower proliferation rates compared to the solvent control”, the “proliferation rate in wound healing assay” value (HEK001 cells; [7]) was “proliferation significantly decreased; also recorded: lower proliferation rates compared to the solvent control” and the EC50 at 24 h [1, 8] was 75.8 ± 13.4 µM. The EC50 [2] was 1.5 ± 0.51 µM, the “cytotoxic response at high concentration” value [2] was “acutely lethal responses” and the EC50 at 24 h [3] was 1.52 ± 0.51 µM. The cell cycle (HepG2 cells [4]) was “cell cycle arrest in the G1 phase”, the “hemolysis of RBCs” value (red blood cells (RBCs); 500 µM) was “increased hemolysis” and the “extracellular phosphatidylserine of RBCs” value (red blood cells (RBCs); only BuP among MeP, EtP, PrP, BuP, HBA) was “increase in extracellular phosphatidylserine”. The “sensitivity at high concentration” value (HMEC-1 cells) was “too sensitive to conduct proliferation assays”, the “proliferation rate in wound healing assay” value (HMEC-1 cells) was “proliferation rates comparable to those observed in untreated controls” and the cell cycle (HDFn cells) was “cell cycle arrest in the G1 phase”. The “percentage of apoptotic cells” value (HepG2 cells [5]) was “higher percentage of apoptotic cells”.

In the case of `COC(=O)c1ccc(O)c(Cl)c1` [CMeP, methyl 3‑chloro-4-hydroxybenzoate], the “proliferation rate in wound healing assay” value (HEK001 cells; HEK001, 1–10 µM) is reported as “decrease in proliferation”, the EC50 at 24 h [1, 8] is reported as 788 ± 139 µM and the “cytotoxic response at high concentration” value [2] is reported as “significant cell death”. For the same molecule, the EC50 at 24 h [3] was 2.2 ± 0.8 µM, the “proliferation rate / wound healing” value (HMEC-1 cells) was “reduction” and the “proliferation rate relative to baseline / untreated control” value (HMEC-1 cells) was 20–30%. The “proliferation rate in wound healing assay” value (HMEC-1 cells) was “proliferation rates comparable to those observed in untreated controls; also recorded: no significant changes in proliferation”.

For `COC(=O)c1cc(Br)c(O)c(Br)c1` [DBMeP, methyl 3,5-dibromo-4-hydroxybenzoate], the “proliferation rate in wound healing assay” value (HEK001 cells; [6]) was “initially reduced proliferation”, the “proliferation rate / wound healing” value (HEK001 cells; versus solvent control) was “dose-dependent increase in proliferation” and the “proliferation in wound healing assay” value (HEK001 cells; HEK001, concentrations higher than 1 µM) was “dose-dependent increase in proliferation”. The EC50 at 24 h [1, 8] was 489 ± 86.4 µM, the EC50 [2] was 1.5 ± 0.4 µM and the EC50 at 24 h [3] was 1.49 ± 0.37 µM. For the same molecule, the “proliferation rate relative to baseline / untreated control” value (HMEC-1 cells) was 20–30% and the “proliferation in wound healing assay” value (HMEC-1 cells; HMEC-1, concentration not stated, high variability) was “reduction in proliferation”.

With `COC(=O)c1cc(Cl)c(O)c(Cl)c1` [DCMeP, methyl 3,5-dichloro-4-hydroxybenzoate] the “proliferation rate in wound healing assay” value (HEK001 cells; HEK001, 1–10 µM) was “decrease in proliferation”, the EC50 at 24 h [1, 8] was > 10000 µM and the “cytotoxic response at high concentration” value [2] was “significant cell death”. For the same molecule, the EC50 at 24 h [3] was 54.5 ± 17.8 µM, the “proliferation rate / wound healing” value (HMEC-1 cells) was “reduction” and the “proliferation rate relative to baseline / untreated control” value (HMEC-1 cells) was 20–30%. For the same molecule, the “proliferation rate in wound healing assay” value (HMEC-1 cells) was “no significant changes in proliferation”.

In the case of `CCOC(=O)c1ccc(O)cc1` [EtP, ethylparaben], the “proliferation rate / wound healing” value (HEK001 cells; versus solvent control) is reported as “substantial decrease in proliferation rates”, the EC50 at 24 h [1, 8] is reported as 171 ± 77.9 µM and the EC50 at 24 h [3] is reported as 536 ± 178 µM. For the same molecule, the “proliferation rate relative to baseline / untreated control” value (HMEC-1 cells) was 20–30% and the “proliferation rate in wound healing assay” value (HMEC-1 cells) was “proliferation rates comparable to those observed in untreated controls”.

With `O=C(O)c1ccc(O)cc1` [HBA, 4-hydroxybenzoic acid] the EC50 at 24 h [1, 8] was > 10000 µM and the EC50 at 24 h [3] was 696 ± 245 µM.

In the case of `COC(=O)c1ccc(O)cc1` [MeP, Methyl 4-hydroxybenzoate], the “proliferation rate / wound healing” value (HEK001 cells; versus solvent control) is reported as “substantial decrease in proliferation rates”, the EC50 at 24 h [1] is reported as 1090 ± 618 µM and the EC50 at 24 h [3] is reported as 1310 ± 464 µM. The “proliferation rate relative to baseline / untreated control” value (HMEC-1 cells) was 160% and the “proliferation rate in wound healing assay” value (HMEC-1 cells) was “proliferation rates comparable to those observed in untreated controls”.

In the case of `CCCOC(=O)c1ccc(O)cc1` [PrP, propylparaben], the EC50 at 24 h [1, 8] is reported as 102 ± 18 µM, the “cytotoxic response at high concentration” value [2] is reported as “acutely lethal responses” and the EC50 at 24 h [3] is reported as 17 ± 9.9 µM. The “sensitivity at high concentration” value (HMEC-1 cells) was “too sensitive to conduct proliferation assays” and the “proliferation rate in wound healing assay” value (HMEC-1 cells) was “proliferation rates comparable to those observed in untreated controls”.

In the case of `CCCCCCCOC(=O)c1ccc(O)cc1` [heptylparaben], the “cell viability, cytochrome C levels, caspase 3” value (HaCaT keratinocytes) is listed as “significantly reduced cell viability, increased cytochrome C levels, and activated caspase 3” and the “cell viability, cytochrome C levels, caspase 3” value (M624 melanoma cells) is listed as “significantly reduced cell viability, increased cytochrome C levels, and activated caspase 3”.
